Data taken from patent US12459914B2, “Compounds and compositions for the treatment of tumors” (FONDAZIONE ISTITUTO ITALIANO DI TECNOLOGIA, priority 2019, dated 2025).
pEC50: −log10 of the molar value. Read-outs that look alike come from different tables or passages of the source.

How the values were obtained:
BxPC-3 cells = experiment: Cell viability assay (CellTiter Glo); format: cell-based; settings: Homo sapiens, 72 h
[1] = Pharmacokinetic studies in mice, plasma levels by LC/MS-MS; format: in vivo, C57B6/J mice; settings: for half-life: read-out: t1/2 (calc)
Experimental: Male C57B6/J mice, 8 weeks old were used (Charles River). All procedures were performed in accordance with the Ethical Guidelines of European Communities Council (Directive 2010/63/EU of 22 Sep. 2010) and accepted by the Italian Ministry of Health. All efforts were made to minimize animal suffering and to use the minimal number of animals required to produce reliable results, according to the “3Rs concept”. Animals were group-housed in ventilated cages and had free access to food and water. They were maintained under a 12-hour light/dark cycle (lights on at 8:00 am) at controlled temperature (21° C.±1° C.) and relative humidity (55%±10%).
Compound d.12 was administered orally (PO), intraperitoneally (IP) and intravenously (IV) to C57B6/J male mice at 2 mg/kg/10 ml, 20 mg/kg/10 ml and 2 mg/kg/5 ml, respectively. Vehicle was composed by PEG400/Tween 80/Saline solution at 10/10/80% in volume, respectively for PO and IV administration. For IP administration, the same vehicle was used with the addition of 10% DMSO in final volume. Three animals per dose were treated. Blood samples at 0, 15, 30, 60, 120, 240, and 480 min after administration were collected for PO and IP arms. Blood samples at 0, 5, 15, 30, 60, 120 and 240 min after administration were collected for IV arm. Plasma was separated from blood by centrifugation for 15 min at 1500 rpm a 4° C., collected in a eppendorf tube and frozen (−80° C.). Control animals treated with vehicle only were also included in the experimental protocol.
Plasma samples were centrifuged at 21.100×g for 15 min at 4° C. An aliquot of each plasma sample was extracted (1:3) with cold CH3CN containing 200 nM of d.48 as internal standard being a close analogue of the parent compound. A calibration curve was prepared in naïve mouse plasma over a 1 nM-10 μM range. Three quality control samples were prepared by spiking the parent compound in naïve mouse plasma to 20, 200 and 2000 nM as final concentrations. The calibrators and quality control samples were extracted (1:3) with the same extraction solution as the plasma samples. The plasma samples, calibrators and quality control samples were centrifuged at 3.270×g for 15 min at 4° C. The supernatants were further diluted (1:1) with H2O, and analyzed by LC/MS-MS on a Waters ACQUITY UPLC/MS TQD system consisting of a Triple Quadrupole Detector (TQD) Mass Spectrometer equipped with an Electrospray Ionization interface and a Photodiode Array e, Detector from Waters Inc. (Milford, MA, USA). Electrospray ionization was applied in positive mode. Compound-dependent parameters as MRM transitions and collision energy were developed for the parent compound and the internal standard. The analyses were run on an ACQUITY UPLC BEH C18 (50×2.1 mmID, particle size 1.7 μm) with a VanGuard BEH C18 pre-column (5×2.1 mmID, particle size 1.7 μm) at 40° C., using H2O+0.1% HCOOH (A) and CH3CN+0.1% HCOOH (B) as mobile phase at 0.5 mL/min. A linear gradient was applied starting at 40% B with an initial hold for 0.2 min, then 40-100% B in 2 min, followed by a hold for 0.1 min at 100% B. All samples (plasma samples, calibrators and quality controls) were quantified by MRM peak area response factor in order to determine the levels of the parent compound in plasma. The plasma concentrations versus time were plotted and the profiles were fitted using PK Solutions Excel Application (Summit Research Service, USA) in order to determine the pharmacokinetic parameters. The results are reported in Tables 2 and 3 and in FIGS. 1, 2 and 3.

[2] = male, C57B6/J, mouse, plasma, mice, IP 20 mg/kg
[3] = male, C57B6/J, mouse, plasma, mice, IV 2 mg/kg
[4] = male, C57B6/J, mouse, plasma, mice, PO 2 mg/kg
[5] = male, C57B6/J, mouse plasma, IV 2 mg/kg, read-out: Average conc.
[6] = male, C57B6/J, mouse plasma, PO 2 mg/kg, read-out: Average conc.

In the case of CCC(=O)N1N=C(c2c(-c3ccccc3)c3cc(Cl)ccc3[nH]c2=O)CC1c1ccc(OC)cc1 (stereo not drawn) [d.12, 6-chloro-3-[3-(4-methoxyphenyl)-2-propanoyl-3,4-dihydropyrazol-5-yl]-4-phenyl-1H-quinolin-2-one], the pEC50 (BxPC-3 cells) was 4.72, the AUC [1, 2] was 9280 ng·h/mL and the Cmax [1, 2] was 5300 ng/mL. For the same compound, the Tmax [1, 2] was 30 min, the half-life [1, 2] was 175 min and the AUC [1, 3] was 899 ng·h/mL. It also gave a Cmax [1, 3] of 973 ng/mL, a Tmax [1, 3] of 5 min and a clearance ([1]; male, C57B6/J, mouse, plasma, mice, IV 2 mg/kg, read-out: CL (calc)) of 33 mL/min/kg. The Vd ([1]; male, C57B6/J, mouse, plasma, mice, IV 2 mg/kg, read-out: VD (calc)) was 2.2 L/kg, the half-life [1, 3] was 47 min and the AUC [1, 4] was 100 ng·h/mL. For the same compound, the Cmax [1, 4] was 76 ng/mL, the Tmax [1, 4] was 30 min and the half-life [1, 4] was 281 min. It also gave a concentration at 5 min ([1]; male, C57B6/J, mouse plasma, IV 2 mg/kg, 5 min, read-out: Average conc.) of 973 ng/mL, a concentration at 15 min [1, 5] of 622 ng/mL and a concentration at 30 min [1, 5] of 515 ng/mL. It also gave a concentration at 60 min [1, 5] of 337 ng/mL, a concentration at 120 min [1, 5] of 146 ng/mL and a concentration at 240 min [1, 5] of 23 ng/mL. For the same compound, the concentration at 0 min ([1]; male, C57B6/J, mouse plasma, PO 2 mg/kg, 0 min, read-out: Average conc.) was 0 ng/mL, the concentration at 15 min [1, 6] was 42 ng/mL and the concentration at 30 min [1, 6] was 76 ng/mL. It also gave a concentration at 60 min [1, 6] of 30 ng/mL, a concentration at 120 min [1, 6] of 21 ng/mL and a concentration at 240 min [1, 6] of 7 ng/mL. For the same compound, the concentration at 480 min ([1]; male, C57B6/J, mouse plasma, PO 2 mg/kg, 480 min, read-out: Average conc.) was 4 ng/mL, the F ([1]; mice, 2 mg/kg) was 11% and the “CL (calc)” value ([1]; mice, IP 20 mg/kg) was 27 mL/min/kg. For the same compound, the “VD (calc)” value ([1]; mice, IP 20 mg/kg) was 6.701 L/kg, the “CL (calc)” value ([1]; mice, PO 2 mg/kg) was 222 mL/min/kg and the “VD (calc)” value ([1]; mice, PO 2 mg/kg) was 90.009 L/kg.
